# Entries after “also recorded” stand apart in the source; their conditions may differ. Read-outs that look alike come from different tables or passages of the source.
# Assays:
# colon cancer cell lines = conditions: commercial (non-stem) cell lines, colon and lung; cited from earlier work
# [1] = tested on: CTSC#85 (TRAIL-resistant colon CSC line); test: drug combination experiment; type: cell-based, human; conditions: 24 h, TRAIL IC50/17-AAG IC50
# Method: Normalized viability at 24 h is plotted against drug combinations. […] Recombinant human Killer TRAIL was purchased from Alexis (San Diego, Calif., USA) while Geldanamycin, 17-AAG and 17-DMAG were purchased from Calbiochem (Nottingham, UK). All agents were diluted into fresh medium at the specified concentrations. Measure of cell viability was performed using CelltiterGlo® luminescent assay (Promega Corporation, Madison, Wis., USA) and luminescence was recorded on Beckman Coulter DTX880 multimode reader (Beckman Coulter Inc., Fullerton, Calif., USA) with an integration time of 100 ms.
# c-Raf = c-Raf (Homo sapiens, UniProt P04049); conditions: selectivity c-Raf over B-Raf; cited from earlier work
# Sequence of c-Raf (P04049 whole entry): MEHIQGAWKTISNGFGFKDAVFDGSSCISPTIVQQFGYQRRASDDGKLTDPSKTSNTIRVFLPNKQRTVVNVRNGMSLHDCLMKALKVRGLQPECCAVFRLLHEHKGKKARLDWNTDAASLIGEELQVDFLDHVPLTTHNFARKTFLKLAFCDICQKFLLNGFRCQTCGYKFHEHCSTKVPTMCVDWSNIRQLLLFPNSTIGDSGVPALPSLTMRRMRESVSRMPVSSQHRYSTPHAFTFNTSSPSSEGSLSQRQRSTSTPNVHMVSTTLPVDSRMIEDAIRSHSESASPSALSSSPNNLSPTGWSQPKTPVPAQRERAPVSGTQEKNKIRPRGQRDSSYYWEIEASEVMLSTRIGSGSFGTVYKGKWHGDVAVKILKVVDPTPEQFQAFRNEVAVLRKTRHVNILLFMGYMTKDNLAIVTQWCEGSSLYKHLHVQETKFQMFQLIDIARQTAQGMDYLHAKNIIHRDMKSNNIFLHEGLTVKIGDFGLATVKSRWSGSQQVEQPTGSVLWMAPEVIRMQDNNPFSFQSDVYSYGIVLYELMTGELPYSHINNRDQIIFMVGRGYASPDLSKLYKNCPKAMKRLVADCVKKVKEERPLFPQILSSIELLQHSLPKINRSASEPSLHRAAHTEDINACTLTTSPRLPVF
# colon CSCs [2] = test: kinase inhibitor library screening, ATP-based viability assay; type: cell-based, human
# Method: A flowchart showing the steps of the screenings performed on colon CSCs, is depicted in FIG. 5. Before treatment with inhibitors, colon CSCs undergo trypsin/EDTA dissociation in order to be consistently plated into 96-well microtiter plates. After 48 h cells recover from dissociation and form spheroids again. Inhibitors are subsequently added to the cells as single agents while ATP-based-viability assay are performed after another 48 h.
# Viability controls are cells treated with DMSO whereas staurosporin-treated cells are positive controls of death.
# (§1) Cells were incubated at 37° C. for a variable time, depending on the size and on the sensitivity of each colon CSC line, until single cell suspension was achieved. Cells were then washed once in fresh medium and plated into 96-well microtiter plates in 80 μL volume. The number of cells plated ranged from 2000 to 5000 per well. Drugs were added after 48 h by dispensing each well with 20 μL of medium containing 5× concentrated compounds. We purchased the kinase inhibitor library from Enzo Life Sciences International, Inc (formerly BIOMOL International, L.P., PA, USA) and used each single inhibitor at a final […] concentration. As a control DMSO was added to cells at a final concentration of 0.1% (v/v).
# Measure of cell viability was performed using CelltiterGlo® luminescent assay (Promega Corporation, Madison, Wis., USA) and luminescence was recorded on Beckman Coulter DTX880 multimode reader (Beckman Coulter Inc., Fullerton, Calif., USA) with an integration time of 100 ms.
# Statistical analysis and IC50 calculations were performed with the aid of Microsoft Excel (Microsoft Corporation, www.microsoft.com) and GraphPad Prism version 4.00 for Windows, (GraphPad Software, San Diego, Calif., www.graphpad.com) while hierarchical clustering was performed with TMev v4.3.01 [10]. Normalized viability represents the signal intensity of each replicate divided by the average of single plate DMSO controls (in percent). Dunnett's post-test was performed on at least three independent experiments for each colon CSC line to calculate statistical significance versus DMSO controls. P values were subsequently clustered by using Euclidean distance as metric and complete linkage as a linkage method.
# [3] = tested on: many other protein kinases; conditions: even at 50 μM; cited from earlier work
# SAPK2b/p38b2 = SAPK2b/p38b2 (Homo sapiens, UniProt Q15759); conditions: cited from earlier work
# Sequence of SAPK2b/p38b2 (Q15759 whole entry): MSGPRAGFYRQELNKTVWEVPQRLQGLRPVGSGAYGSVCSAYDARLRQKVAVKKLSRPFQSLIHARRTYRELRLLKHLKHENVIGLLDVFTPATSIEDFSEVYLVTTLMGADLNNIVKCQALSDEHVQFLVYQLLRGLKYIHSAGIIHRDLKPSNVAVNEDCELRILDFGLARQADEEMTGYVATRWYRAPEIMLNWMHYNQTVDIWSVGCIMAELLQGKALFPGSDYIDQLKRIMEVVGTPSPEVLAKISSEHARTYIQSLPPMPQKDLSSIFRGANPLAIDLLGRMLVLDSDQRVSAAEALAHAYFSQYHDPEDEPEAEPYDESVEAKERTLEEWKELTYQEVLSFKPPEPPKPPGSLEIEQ
# SAPK2a/p38a = SAPK2a/p38a (Homo sapiens, UniProt Q16539); conditions: cited from earlier work
# Sequence of SAPK2a/p38a (Q16539 whole entry): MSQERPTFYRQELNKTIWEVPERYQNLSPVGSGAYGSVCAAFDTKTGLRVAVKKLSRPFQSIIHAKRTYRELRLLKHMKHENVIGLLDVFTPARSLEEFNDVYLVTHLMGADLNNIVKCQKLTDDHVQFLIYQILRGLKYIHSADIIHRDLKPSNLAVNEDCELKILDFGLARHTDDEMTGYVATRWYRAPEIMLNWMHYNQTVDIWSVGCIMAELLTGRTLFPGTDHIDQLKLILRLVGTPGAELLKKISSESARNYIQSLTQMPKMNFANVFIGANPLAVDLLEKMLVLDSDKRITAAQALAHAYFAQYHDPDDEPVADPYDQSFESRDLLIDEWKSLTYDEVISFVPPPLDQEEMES
# PKCe, PKCh, and PKCz = conditions: reduced inhibitory activity; cited from earlier work
# CaM kinase III = CaM kinase III (Homo sapiens, UniProt O00418); conditions: cited from earlier work
# [4] = tested on: PKCa, PKCb, and PKCg isoforms; conditions: cited from earlier work
# PKCd = PKCd (Homo sapiens, UniProt Q05655); conditions: cited from earlier work
# Sequence of PKCd (Q05655 whole entry, species assumed): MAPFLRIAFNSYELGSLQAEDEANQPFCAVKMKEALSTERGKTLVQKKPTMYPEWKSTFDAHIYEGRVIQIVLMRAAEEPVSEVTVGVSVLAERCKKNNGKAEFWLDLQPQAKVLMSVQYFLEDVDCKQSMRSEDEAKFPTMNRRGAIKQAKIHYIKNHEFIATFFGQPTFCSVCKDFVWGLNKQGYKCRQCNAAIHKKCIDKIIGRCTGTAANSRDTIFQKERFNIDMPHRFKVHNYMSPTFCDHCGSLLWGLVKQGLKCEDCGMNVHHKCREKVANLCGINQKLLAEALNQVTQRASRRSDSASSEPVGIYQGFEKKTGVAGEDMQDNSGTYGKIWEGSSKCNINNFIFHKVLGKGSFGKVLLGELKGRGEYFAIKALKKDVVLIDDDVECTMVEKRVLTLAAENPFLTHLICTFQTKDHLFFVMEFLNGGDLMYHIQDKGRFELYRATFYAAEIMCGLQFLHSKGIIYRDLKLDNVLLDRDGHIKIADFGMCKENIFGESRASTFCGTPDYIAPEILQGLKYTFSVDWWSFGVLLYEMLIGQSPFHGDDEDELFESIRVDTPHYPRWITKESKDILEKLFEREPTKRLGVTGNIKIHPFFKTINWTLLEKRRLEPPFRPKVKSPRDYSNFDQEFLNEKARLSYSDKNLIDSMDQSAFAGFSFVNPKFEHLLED
# CaM kinase II = conditions: cited from earlier work
# CTSC#85 = test: dose-response analysis, viability (CelltiterGlo); type: cell-based, human; conditions: escalating doses
# [5] = tested on: TNF-a-inducible phosphorylation of IkBa; conditions: cited from earlier work
# Cdk5 = Cdk5 (Homo sapiens, UniProt Q00535); conditions: cited from earlier work
# Sequence of Cdk5 (Q00535 whole entry, species assumed): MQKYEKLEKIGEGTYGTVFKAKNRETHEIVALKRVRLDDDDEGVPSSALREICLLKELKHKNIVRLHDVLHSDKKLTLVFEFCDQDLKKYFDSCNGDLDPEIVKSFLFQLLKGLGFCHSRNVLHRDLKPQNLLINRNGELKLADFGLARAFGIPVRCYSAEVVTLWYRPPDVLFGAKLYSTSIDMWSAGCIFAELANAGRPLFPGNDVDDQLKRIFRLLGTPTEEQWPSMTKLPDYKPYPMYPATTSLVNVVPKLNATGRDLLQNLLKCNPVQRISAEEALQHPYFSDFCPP
# Sequence of Cdk5 (Q15078 99-307 partner limits assumed, species assumed): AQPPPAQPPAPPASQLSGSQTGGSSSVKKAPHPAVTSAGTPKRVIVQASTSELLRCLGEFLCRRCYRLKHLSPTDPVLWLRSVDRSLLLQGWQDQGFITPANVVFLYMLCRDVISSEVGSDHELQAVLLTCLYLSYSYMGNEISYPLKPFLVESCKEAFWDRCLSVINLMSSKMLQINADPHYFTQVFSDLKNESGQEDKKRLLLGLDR
# human PDGF b-receptors = human PDGF b-receptors (Homo sapiens, UniProt P09619); conditions: cited from earlier work
# Sequence of human PDGF b-receptors (P09619 33-1106): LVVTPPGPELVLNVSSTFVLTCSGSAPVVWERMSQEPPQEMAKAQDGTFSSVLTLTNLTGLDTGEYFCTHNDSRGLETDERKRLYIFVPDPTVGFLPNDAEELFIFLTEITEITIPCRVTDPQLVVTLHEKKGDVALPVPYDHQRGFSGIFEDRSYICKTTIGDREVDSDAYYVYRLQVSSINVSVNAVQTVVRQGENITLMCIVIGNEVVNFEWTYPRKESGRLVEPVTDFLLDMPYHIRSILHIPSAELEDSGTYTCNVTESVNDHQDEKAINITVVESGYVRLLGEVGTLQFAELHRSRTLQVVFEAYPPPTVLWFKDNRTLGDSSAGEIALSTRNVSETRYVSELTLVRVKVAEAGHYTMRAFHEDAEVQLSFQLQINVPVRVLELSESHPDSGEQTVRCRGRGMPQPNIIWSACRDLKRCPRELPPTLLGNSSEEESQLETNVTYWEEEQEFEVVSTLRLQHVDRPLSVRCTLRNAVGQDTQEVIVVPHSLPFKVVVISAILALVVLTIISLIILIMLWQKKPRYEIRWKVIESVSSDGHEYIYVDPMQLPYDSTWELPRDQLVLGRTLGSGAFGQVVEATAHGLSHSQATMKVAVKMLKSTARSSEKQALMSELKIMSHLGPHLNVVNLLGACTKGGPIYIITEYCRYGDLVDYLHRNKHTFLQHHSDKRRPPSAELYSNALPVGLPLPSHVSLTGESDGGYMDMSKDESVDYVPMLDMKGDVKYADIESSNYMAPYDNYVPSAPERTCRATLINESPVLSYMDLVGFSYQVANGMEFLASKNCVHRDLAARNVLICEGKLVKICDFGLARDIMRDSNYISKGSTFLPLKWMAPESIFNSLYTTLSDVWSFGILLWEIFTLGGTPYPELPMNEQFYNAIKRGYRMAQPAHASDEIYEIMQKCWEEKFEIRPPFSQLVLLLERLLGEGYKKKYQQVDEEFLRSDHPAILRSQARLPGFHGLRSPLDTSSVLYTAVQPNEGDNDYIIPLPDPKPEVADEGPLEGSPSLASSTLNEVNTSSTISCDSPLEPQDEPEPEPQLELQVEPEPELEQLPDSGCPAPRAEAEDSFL
# human PDGF a-receptors = human PDGF a-receptors (Homo sapiens, UniProt P16234); conditions: cited from earlier work
# Sequence of human PDGF a-receptors (P16234 24-1089): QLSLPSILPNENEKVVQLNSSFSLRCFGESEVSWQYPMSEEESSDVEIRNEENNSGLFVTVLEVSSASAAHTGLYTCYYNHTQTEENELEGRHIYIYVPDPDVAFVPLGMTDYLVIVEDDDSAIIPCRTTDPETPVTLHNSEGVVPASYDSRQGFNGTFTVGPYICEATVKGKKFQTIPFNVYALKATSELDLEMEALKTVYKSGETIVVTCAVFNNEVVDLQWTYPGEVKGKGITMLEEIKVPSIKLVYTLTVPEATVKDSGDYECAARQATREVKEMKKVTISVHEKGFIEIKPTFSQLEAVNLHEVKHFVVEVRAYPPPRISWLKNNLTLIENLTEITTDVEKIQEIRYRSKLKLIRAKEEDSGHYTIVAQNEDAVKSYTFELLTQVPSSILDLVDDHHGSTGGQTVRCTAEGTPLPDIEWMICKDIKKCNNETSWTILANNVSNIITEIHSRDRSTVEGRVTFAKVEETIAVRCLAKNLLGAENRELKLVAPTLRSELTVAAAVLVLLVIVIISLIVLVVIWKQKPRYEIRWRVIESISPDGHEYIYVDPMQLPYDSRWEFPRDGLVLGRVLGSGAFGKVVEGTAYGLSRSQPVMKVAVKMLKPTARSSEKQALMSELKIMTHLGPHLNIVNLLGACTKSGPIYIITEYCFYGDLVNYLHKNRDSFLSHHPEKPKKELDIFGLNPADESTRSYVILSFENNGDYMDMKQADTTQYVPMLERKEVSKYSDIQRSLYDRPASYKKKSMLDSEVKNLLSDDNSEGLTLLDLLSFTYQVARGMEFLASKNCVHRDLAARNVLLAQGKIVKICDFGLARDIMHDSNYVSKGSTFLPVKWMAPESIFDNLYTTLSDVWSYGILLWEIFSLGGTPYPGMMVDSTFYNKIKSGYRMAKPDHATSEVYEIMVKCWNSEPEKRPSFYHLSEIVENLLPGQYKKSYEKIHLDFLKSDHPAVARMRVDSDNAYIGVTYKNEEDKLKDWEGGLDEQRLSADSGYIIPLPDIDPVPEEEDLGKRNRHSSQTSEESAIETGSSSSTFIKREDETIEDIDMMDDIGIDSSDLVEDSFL
# c-kit = c-kit (Homo sapiens, UniProt P10721); conditions: at 5 μM; cited from earlier work
# protein kinase G = conditions: cited from earlier work
# [6] = biological target: myosin light chain kinase; conditions: cited from earlier work
# [7] = biological target: platelet-derived growth factor receptor tyrosine kinase (Homo sapiens, UniProt P09619); conditions: cited from earlier work
# Sequence of platelet-derived growth factor receptor tyrosine kinase (P09619 33-1106): as the sequence (P09619 33-1106) above
# rat brain CaM kinase II = conditions: cited from earlier work
# protein kinase C (PKC) = conditions: cited from earlier work
# protein kinase A = protein kinase A (Homo sapiens, UniProt P17612); conditions: cited from earlier work
# [8] = tested on: GSK-3 in primary adipocytes; conditions: cited from earlier work
# [9] = biological target: T1, GSK-3b immunoprecipitates (Homo sapiens, UniProt P49841); conditions: cited from earlier work
# T1 construct: host or cells: immunoprecipitates
# [10] = biological target: casein kinase I and PKA, insulin receptor kinase fragment; conditions: range over casein kinase I; cited from earlier work
# colon CSCs [11] = test: dose-response analysis on four colon CSCs; type: cell-based, human; conditions: single agent, escalating doses, four colon CSC lines
# Method: as §1, with “(v/v). Recombinant human Killer TRAIL was purchased from Alexis (San Diego, Calif., USA) while Geldanamycin, 17-AAG and 17-DMAG were purchased from Calbiochem (Nottingham, UK). All agents were diluted into fresh medium at the specified concentrations. Measure of cell viability was performed using CelltiterGlo® luminescent assay (Promega Corporation, Madison, Wis., USA) and luminescence was recorded on Beckman Coulter DTX880 multimode reader (Beckman Coulter Inc., Fullerton, Calif., USA) with an integration time of 100 ms.” for “(v/v).”
# [12] = single agent, 5 μM, viability after 48 h, four colon CSC lines
molecule,measurement,setting,value
"C=CCNC1=C2C[C@@H](C)C[C@H](OC)[C@H](O)[C@@H](C)/C=C(\C)[C@H](OC(N)=O)[C@@H](OC)/C=C\C=C(/C)C(=O)NC(=CC1=O)C2=O [17-AAG, 17-Allylamino-17-demethoxygeldanamycin]",sensitization of tumor cell lines to TRAIL,colon cancer cell lines,sensitizes colon cancer cell lines; also recorded: TRAIL resistance can be overcome
same,effect of combination with TRAIL on normalized viability,[1],synergistic effect; also recorded: rapidly (24 h) sensitized to TRAIL treatment
Cc1ccc(NC(=O)c2cccc(N(C)C)c2)cc1NC(=O)c1ccc(O)cc1 [ZM 336372],increased potency on c-Raf compared to B-Raf,c-Raf,ten-fold
same,effect on colon CSC proliferation / number versus DMSO controls,colon CSCs [2],lead to significant proliferation
same,inhibition of many other protein kinases,[3],"potency compared to B-Raf, but does not inhibit many other"
same,IC50,SAPK2b/p38b2,2000 nM
same,IC50,SAPK2a/p38a,2000 nM
Oc1ccc(-c2nc(-c3ccncc3)c(-c3ccc(F)cc3)[nH]2)cc1 [SB 202190],IC50,"PKCe, PKCh, and PKCz",80000 to 100000 nM
same,IC50,CaM kinase III,5300 nM
same,effect on colon CSC proliferation / number versus DMSO controls,colon CSCs [2]; [12],lead to significant proliferation
same,IC50,[4],30000 to 42000 nM
CC(=O)c1c(O)c(C)c(O)c(Cc2c(O)c3c(c(C(=O)/C=C/c4ccccc4)c2O)OC(C)(C)C=C3)c1O [Rottlerin],IC50,PKCd,3000 to 6000 nM
same,effect on colon CSC proliferation / number versus DMSO controls,colon CSCs [2]; [12],significantly lead to a reduction in colon CSC numbers
COc1ccc(S(=O)(=O)N(CCO)c2ccccc2CN(C)C/C=C/c2ccc(Cl)cc2)cc1 [KN-93],Ki,CaM kinase II,370 nM
"CO[C@H]1/C=C\C=C(/C)C(=O)NC2=CC(=O)C(NCCN(C)C)=C(C[C@@H](C)C[C@H](OC)[C@H](O)[C@@H](C)/C=C(\C)[C@@H]1OC(N)=O)C2=O [17-DMAG, 17-dimethylaminoethylamino-17-demethoxy-geldanamycin]",sensitivity of the TRAIL-resistant colon CSC line to single agent,CTSC#85,sensitive
Cc1ccc(S(=O)(=O)/C=C/C#N)cc1 [BAY 11-7082],IC50,[5],10000 nM
Indirubin-3′-monoxime,IC50,Cdk5,100 nM
COc1cc2ncc(-c3ccccc3)nc2cc1OC [AG 1296],IC50,human PDGF b-receptors,800 nM
same,IC50,human PDGF a-receptors,1000 nM
same,inhibition,c-kit,c-kit (80% inhibition at 5 μM)
O=S(=O)(c1cccc2cnccc12)N1CCCNCC1 [HA-1077],effect on colon CSC proliferation / number versus DMSO controls,colon CSCs [2]; [12],lead to significant proliferation
same,Ki,protein kinase G,1600 nM
same,Ki,[6],36000 nM
CC(C)(C)c1cc(C=C(C#N)C#N)cc(C(C)(C)C)c1O [AG 17],effect on colon CSC proliferation / number versus DMSO controls,colon CSCs [2]; [12],significantly lead to a reduction in colon CSC numbers
same,IC50,[7],500 nM
CN([C@@H](Cc1ccc(OS(=O)(=O)c2cccc3cnccc23)cc1)C(=O)N1CCN(c2ccccc2)CC1)S(=O)(=O)c1cccc2cnccc12 [KN-62],Ki,rat brain CaM kinase II,900 nM
Cn1cc(C2=C(c3cn(CCCSC(=N)N)c4ccccc34)C(=O)NC2=O)c2ccccc21 [Ro-31-8220],IC50,protein kinase C (PKC),10 nM
same,IC50,CaM kinase II,17000 nM
same,effect on colon CSC proliferation / number versus DMSO controls,colon CSCs [2]; [12],significantly lead to a reduction in colon CSC numbers
same,IC50,protein kinase A,900 nM
same,IC50,[8],6.8 nM
same,IC50,[9],2.8 nM
Nc1ncnc2c1c(I)cn2[C@@H]1O[C@H](CO)[C@@H](O)[C@H]1O [5-Iodotubercidin],IC50,[10],400 to 28000 nM
same,effect on colon CSC proliferation / number versus DMSO controls,colon CSCs [2]; [12],significantly lead to a reduction in colon CSC numbers
"TRAIL: Tumor necrosis factor-related apoptosis-inducing ligand; recombinant human Killer TRAIL from Alexis (protein, UniProt P50591 1-281, looked up) Tumor necrosis factor ligand …: MAMMEVQGGPSLGQTCVLIVIFTVLLQSLCVAVTYVYFTNELKQMQDKYSKSGIACFLKEDDSYWDPNDEESMNSPCWQVKWQLRQLVRKMILRTSEETISTVQEKQQNISPLVRERGPQRVAAHITGTRGRSNTLSSPNSKNEKALGRKINSWESSRSGHSFLSNLHLRNGELVIHEKGFYYIYSQTYFRFQEEIKENTKNDKQMVQYIYKYTSYPDPILLMKSARNSCWSKDAEYGLYSIYQGGIFELKENDRIFVSVTNEHLIDMDHEASFFGAFLVG",resistance of colon CSCs to treatment alone,colon CSCs [11],One out of four colon CSCs is resistant

# — patent publication US20090275546A1, “Diagnostic tests and personalized treatment regimes for cancer stem cells” (Istituto Superiore di Sanita, priority 2008, published 2009)
